Where two headings read alike, the source gives them in different places.
How the values were obtained:
[1] = test system: NCI-H358 cells (express KRas G12C), Phospho-ERK; assay: Cellular inhibition of KRas G12C: Phospho-ERK in NCI-H358 cells; format: cell-based; conditions: pERK(Thr202/Tyr204) normalized with GAPDH, NCI-H358 cells, 3 hours, read-out: IC50
In short: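 IC50 derived by 4-parameter fit of GAPDH-normalized pERK(Thr202/Tyr204) signal, as percent of DMSO control. Signal came from in-cell immunodetection with infrared secondaries after 3 h compound exposure of KRas G12C NCI-H358 cells at 0.5% DMSO.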

[2] = target: KRas G12C (Homo sapiens, UniProt P01116, C118S/C51S/C80L/G12C); assay: KRas G12C Modification Assay (LCMS detection of covalent adduct); format: binding; conditions: normalized percent of control; tested at 5 μM concentration for 3 hours
In short: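 Covalent modification was read by reverse-phase LC/MS of intact protein after compound exposure, each reaction stopped at its time point with 25 mM acetic acid. Unmodified-protein signal, taken as percent of total, was normalised to untreated protein and reported as POC.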

SMILES | IC50 ([1]; Homo sapiens, NCI-H358, 3 h) | POC [2] | IC50 [1] | IC50 ([1]; Homo sapiens)
CN1CCC[C@H]1COc1nc2c(c(N3CCN(C(=O)/C=C/CN4CCOCC4)[C@@H](CC#N)C3)n1)CCN(c1cccc(Cl)c1C(F)(F)F)C2 [Example 346, 2-[(2S)-4-[7-[3-chloro-2-(trifluoromethyl)phenyl]-2-[[(2S)-1-methylpyrrolidin-2-yl]methoxy]-6,8-dihydro-5H-pyrido[3,4-d]pyrimidin-4-yl]-1-[(E)-4-morpholinobut-2-enoyl]piperazin-2-yl]acetonitrile] | 0.1 to 1000 nM | C (“C”>50% POC) |  | 
C=CC(=O)N1CCN(c2nc(OCCN3CCC[C@@H](OC)C3)nc3c2CCN(c2cc(O)cc4ccccc24)C3)CC1 [Example 99, (R)-1-(4-(7-(3-hydroxynaphthalen-1-yl)-2-(2-(3-methoxypiperidin-1-yl)ethoxy)-5,6,7,8-tetrahydropyrido[3,4-d]pyrimidin-4-yl)piperazin-1-yl)prop-2-en-1-one] | > 1000 nM | C (“C”>50% POC) |  | 
C=CC(=O)N1CCN(c2nc(OC[C@H]3CN(C)CCN3)nc3c2CCN(c2cccc4ccccc24)C3)CC1CC#N (stereo partly drawn) [Example 224, 2-(1-acryloyl-4-(2-(((R)-4-methylpiperazin-2-yl)methoxy)-7-(naphthalen-1-yl)-5,6,7,8-tetrahydropyrido[3,4-d]pyrimidin-4-yl)piperazin-2-yl)acetonitrile] | 0.1 to 1000 nM | C (“C”>50% POC) |  | 
C=CC(=O)N1CCN(c2nc(OCC3COCCN3C)nc3c2CCN(c2cc(O)cc4ccccc24)C3)CC1 (stereo not drawn) [Example 194, 1-(4-(7-(3-hydroxynaphthalen-1-yl)-2-((4-methylmorpholin-3-yl)methoxy)-5,6,7,8-tetrahydropyrido[3,4-d]pyrimidin-4-yl)piperazin-1-yl)prop-2-en-1-one] | > 1000 nM | C (“C”>50% POC) |  | 
C=CC(=O)N1CCN(c2nc(OC[C@@H]3CCCN3C)nc3c2CCN(c2cccc4cc(F)ccc24)C3)CC1CC#N (stereo partly drawn) [Example 290, 2-[4-[7-(6-fluoro-1-naphthyl)-2-[[(2S)-1-methylpyrrolidin-2-yl]methoxy]-6,8-dihydro-5H-pyrido[3,4-d]pyrimidin-4-yl]-1-prop-2-enoyl-piperazin-2-yl]acetonitrile] |  | C (“C”>50% POC) | 0.1 to 1000 nM | 
C=CC(=O)N1[C@H](C)CN(c2nc(OCCCN3CCOCC3)nc3c2CCN(c2cc(O)cc4ccccc24)C3)C[C@@H]1C [Example 191, 1-((2S,6R)-4-(7-(3-hydroxynaphthalen-1-yl)-2-(3-morpholinopropoxy)-5,6,7,8-tetrahydropyrido[3,4-d]pyrimidin-4-yl)-2,6-dimethylpiperazin-1-yl)prop-2-en-1-one] |  | C (“C”>50% POC) |  | > 1000 nM
C=CC(=O)N1CCN(c2nc(OCCN(CC)CC)nc3c2CCN(c2ccccc2C(F)(F)F)C3)CC1CC#N (stereo not drawn) [Example 300, 2-[4-[2-[2-(diethylamino)ethoxy]-7-[2-(trifluoromethyl)phenyl]-6,8-dihydro-5H-pyrido[3,4-d]pyrimidin-4-yl]-1-prop-2-enoyl-piperazin-2-yl]acetonitrile] |  | C (“C”>50% POC) | 0.1 to 1000 nM | 
C=CC(=O)N1CCN(c2nc(OC[C@H]3CCCN3C)nc3c2CCN(c2ccc(F)c4ccccc24)C3)C[C@@H]1CC#N [Example 318, 2-[(2S)-4-[7-(4-fluoro-1-naphthyl)-2-[[(2R)-1-methylpyrrolidin-2-yl]methoxy]-6,8-dihydro-5H-pyrido[3,4-d]pyrimidin-4-yl]-1-prop-2-enoyl-piperazin-2-yl]acetonitrile] | 0.1 to 1000 nM | C (“C”>50% POC) |  | 
C=CC(=O)N1CCN(c2nc(OC[C@@H]3CCCN3C)nc3c2CCN(c2cnccc2C2CC2)C3)C[C@@H]1CC#N [Example 352, 2-[(2S)-4-[7-(4-cyclopropyl-3-pyridyl)-2-[[(2S)-1-methylpyrrolidin-2-yl]methoxy]-6,8-dihydro-5H-pyrido[3,4-d]pyrimidin-4-yl]-1-prop-2-enoyl-piperazin-2-yl]acetonitrile] | 0.1 to 1000 nM | C (“C”>50% POC) |  | 
C=CC(=O)N1CCN(c2nc(OC[C@@H]3CCCN3C)nc3c2CCN(c2cncc4ccccc24)C3)CC1CC#N (stereo partly drawn) [Example 260, 2-[4-[7-(4-isoquinolyl)-2-[[(2S)-1-methylpyrrolidin-2-yl]methoxy]-6,8-dihydro-5H-pyrido[3,4-d]pyrimidin-4-yl]-1-prop-2-enoyl-piperazin-2-yl]acetonitrile] | 0.1 to 1000 nM | C (“C”>50% POC) |  | 
C=CC(=O)N1CCN(c2nc(OCCN(CC)CC)nc3c2CCN(c2ccccc2C(F)(F)F)C3)CC1CC#N (stereo not drawn) [Example 284, 2-(1-acryloyl-4-(2-(2-(diethylamino)ethoxy)-7-(2-(trifluoromethyl)phenyl)-5,6,7,8-tetrahydropyrido[3,4-d]pyrimidin-4-yl)piperazin-2-yl)acetonitrile] | 0.1 to 1000 nM | C (“C”>50% POC) |  | 
C=CC(=O)N1CCN(c2nc(OC[C@@H]3CCCN3CC)nc3c2CCN(c2ccc(F)c4ccccc24)C3)CC1CC#N (stereo partly drawn) [Example 322, 2-(1-acryloyl-4-(2-(((S)-1-ethylpyrrolidin-2-yl)methoxy)-7-(4-fluoronaphthalen-1-yl)-5,6,7,8-tetrahydropyrido[3,4-d]pyrimidin-4-yl)piperazin-2-yl)acetonitrile] | 0.1 to 1000 nM | C (“C”>50% POC) |  | 
C=CC(=O)N1CCN(c2nc(OC[C@@H]3C[C@@H](OC)CN3C)nc3c2CCN(c2cccc(Cl)c2C(F)(F)F)C3)C[C@@H]1CC#N [Example 332, 2-[(2S)-4-[7-[3-chloro-2-(trifluoromethyl)phenyl]-2-[[(2S,4R)-4-methoxy-1-methyl-pyrrolidin-2-yl]methoxy]-6,8-dihydro-5H-pyrido[3,4-d]pyrimidin-4-yl]-1-prop-2-enoyl-piperazin-2-yl]acetonitrile] | 0.1 to 1000 nM | C (“C”>50% POC) |  | 
CN(C)C/C=C/C(=O)N1CCN(c2nc(OC[C@@H]3CCCN3C)nc3c2CCN(c2cccc4ccccc24)C3)C[C@@H]1CC#N [Example 235, 2-((S)-1-((E)-4-(dimethylamino)but-2-enoyl)-4-(2-(((S)-1-methylpyrrolidin-2-yl)methoxy)-7-(naphthalen-1-yl)-5,6,7,8-tetrahydropyrido[3,4-d]pyrimidin-4-yl)piperazin-2-yl)acetonitrile] | 0.1 to 1000 nM | C (“C”>50% POC) |  | 
C=CC(=O)N1CCN(c2nc(OCC(O)CN3CCOCC3)nc3c2CCN(c2cc(O)cc4ccccc24)C3)CC1 (stereo not drawn) [Example 123, 1-(4-(2-(2-hydroxy-3-morpholinopropoxy)-7-(3-hydroxynaphthalen-1-yl)-5,6,7,8-tetrahydropyrido[3,4-d]pyrimidin-4-yl)piperazin-1-yl)prop-2-en-1-one] | > 1000 nM | A (“A”≤25% POC) |  | 
C=CC(=O)N1CCN(c2nc(OCCCN3CCOCC3)nc3c2CCN(c2cc(O)ccc2C)C3)CC1 [Example 105, 1-(4-(7-(5-hydroxy-2-methylphenyl)-2-(3-morpholinopropoxy)-5,6,7,8-tetrahydropyrido[3,4-d]pyrimidin-4-yl)piperazin-1-yl)prop-2-en-1-one] |  | B (“B”>25% POC−≤50% POC) |  | > 1000 nM
C=CC(=O)N1CCN(c2nc(OC[C@@H]3CCCN3C)nc3c2CCN(c2cc(O)cc4ccccc24)C3)CC1CC#N (stereo partly drawn) [Example 182, 2-[4-[7-(3-hydroxy-1-naphthyl)-2-[[(2S)-1-methylpyrrolidin-2-yl]methoxy]-6,8-dihydro-5H-pyrido[3,4-d]pyrimidin-4-yl]-1-prop-2-enoyl-piperazin-2-yl]acetonitrile] |  | C (“C”>50% POC) |  | 0.1 to 1000 nM
C=CC(=O)N1CCN(c2nc(OC[C@@H]3CCCN3C)nc3c2CCN(c2cccc(OC)c2C(F)(F)F)C3)C[C@@H]1CC#N [Example 330, 2-[(2S)-4-[7-[3-methoxy-2-(trifluoromethyl)phenyl]-2-[[(2S)-1-methylpyrrolidin-2-yl]methoxy]-6,8-dihydro-5H-pyrido[3,4-d]pyrimidin-4-yl]-1-prop-2-enoyl-piperazin-2-yl]acetonitrile] | 0.1 to 1000 nM | C (“C”>50% POC) |  | 
C=CC(=O)N1CCN(c2nc(OC[C@@H]3CCN(C)C3)nc3c2CCN(c2cccc4ccccc24)C3)CC1CC#N (stereo partly drawn) [Example 177, 2-[4-[2-[[(3R)-1-methylpyrrolidin-3-yl]methoxy]-7-(1-naphthyl)-6,8-dihydro-5H-pyrido[3,4-d]pyrimidin-4-yl]-1-prop-2-enoyl-piperazin-2-yl]acetonitrile] |  | C (“C”>50% POC) |  | 0.1 to 1000 nM
C=CC(=O)N1CCN(c2nc(OC[C@H]3C[C@H](O)CN3C)nc3c2CCN(c2cccc4ccccc24)C3)C[C@@H]1CC#N [Example 323, 2-[(2S)-4-[2-[[(2R,4S)-4-hydroxy-1-methyl-pyrrolidin-2-yl]methoxy]-7-(1-naphthyl)-6,8-dihydro-5H-pyrido[3,4-d]pyrimidin-4-yl]-1-prop-2-enoyl-piperazin-2-yl]acetonitrile] | 0.1 to 1000 nM | C (“C”>50% POC) |  | 
C=CC(=O)N1CCN(c2nc(OC[C@H]3CN(C)C(C)(C)CO3)nc3c2CCN(c2cccc4ccccc24)C3)C[C@@H]1CC#N [Example 450, 2-((S)-1-Acryloyl-4-(7-(naphthalen-1-yl)-2-(((R)-4,5,5-trimethylmorpholin-2-yl)methoxy)-5,6,7,8-tetrahydropyrido[3,4-d]pyrimidin-4-yl)piperazin-2-yl)acetonitrile] | 0.1 to 1000 nM | C (“C”>50% POC) |  | 
